What follows are molecules tested against T1, Amino acid transporter (Rattus norvegicus) (UniProt Q9Z1J7) (assay: Inhibition of ASCT2 mediated [3H]-D-serine uptake in rat hippocampal astrocytes at 1 mM after 5 mins by beta counting analysis).
T1 sequence (whole entry): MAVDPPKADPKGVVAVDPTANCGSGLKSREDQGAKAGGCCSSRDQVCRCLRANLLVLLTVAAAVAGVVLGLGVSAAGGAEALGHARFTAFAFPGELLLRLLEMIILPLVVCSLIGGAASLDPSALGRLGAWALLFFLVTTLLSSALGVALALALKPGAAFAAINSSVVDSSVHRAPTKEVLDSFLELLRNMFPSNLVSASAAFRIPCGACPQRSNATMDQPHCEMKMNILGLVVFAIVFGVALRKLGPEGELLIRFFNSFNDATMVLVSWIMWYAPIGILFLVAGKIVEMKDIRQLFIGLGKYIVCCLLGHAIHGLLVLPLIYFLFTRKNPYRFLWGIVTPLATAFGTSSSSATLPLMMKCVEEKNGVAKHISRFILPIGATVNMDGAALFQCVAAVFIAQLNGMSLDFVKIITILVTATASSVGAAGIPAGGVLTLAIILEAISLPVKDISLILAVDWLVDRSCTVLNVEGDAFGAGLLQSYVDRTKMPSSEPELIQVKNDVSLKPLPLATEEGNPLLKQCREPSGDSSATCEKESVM
Assay type: cell-based
`NC1(C(=O)O)CCC1` showed an inhibition of over 25%. `O=C(O)C1C[C@@H](Cc2ccccc2F)CN1` (single isomer, unassigned) was tested, and the inhibition was over 25%. For `O=C(O)C1C[C@@H](Cc2cccc(Br)c2)CN1` (single isomer, unassigned), the inhibition was over 25%. For `NC(C(=O)O)C(O)c1cccnc1` (racemic), the inhibition was over 25%. For `N[C@@H](Cc1ccc(O)cc1)C(=O)O`, the inhibition was over 25%. In the case of `Cc1ccccc1[C@H](N)C(=O)O`, the inhibition is reported as over 25%. `N[C@H]1CCSC1=O` was tested, and the inhibition was over 25%. `COC[C@H](N)C(=O)O` gave an inhibition of over 25%. For `NC(Cc1c[nH]c2cccc(F)c12)C(=O)O` (stereo unspecified), the inhibition was over 25%. In the case of `NC(C(=O)O)c1cccc(Br)c1` (stereo unspecified), the inhibition is reported as over 25%. `CC(C)[C@H](N)C(=O)O` was tested, and the inhibition was over 25%. Molecule `C#CCC[C@H](N)C(=O)O` has an inhibition of over 25%. `NC(C(=O)O)C1CC2C=CC1C2` (stereo unspecified) was tested, and the inhibition was over 25%. `O=C(Nc1cccc2ccccc12)[C@@H]1C[C@@H](O)CN1` was tested, and the inhibition was over 25%. Molecule `O=C(O)[C@H](CO)NCc1ccccc1` has an inhibition of over 25%. In the case of `O=C(O)[C@@H]1C[C@H](Cc2ccccc2)CN1`, the inhibition is reported as over 25%. `O=C(O)C1C[C@@H](Cc2ccccc2I)CN1` (single isomer, unassigned) was tested, and the inhibition was over 25%. Work on `[N-]=[N+]=CC(=O)CC[C@H](N)C(=O)O` yielded an inhibition of over 25%. With `C[C@H](N)C(=O)O` the inhibition was over 25%. Work on `O=C(O)[C@@H]1C[C@@H](Cc2cccc(Cl)c2)CN1` yielded an inhibition of over 25%. For `O=C(O)C(c1ccc(F)cc1)N1CCOCC1` (stereo unspecified), the inhibition was over 25%. In the case of `[N-]=[N+]=NCC[C@H](N)C(=O)O`, the inhibition is reported as over 25%. Work on `NC(C(=O)O)c1ccc(C(=O)O)c(O)c1` (stereo unspecified) yielded an inhibition of over 25%. `N[C@@H](Cn1oc(=O)[nH]c1=O)C(=O)O` was tested, and the inhibition was over 25%. Molecule `O=C(O)C1C[C@@H](Cc2ccccc2Br)CN1` (single isomer, unassigned) has an inhibition of over 25%. Work on `O=C(O)C1C[C@@H](Cc2ccc(Cl)c(Cl)c2)CN1` (single isomer, unassigned) yielded an inhibition of over 25%. For `CSCC[C@H](N)C(=O)O`, the inhibition was over 25%. Work on `NC(C(=O)O)c1ccc([N+](=O)[O-])cc1` (stereo unspecified) yielded an inhibition of over 25%. In the case of `N[C@H](C(=O)O)c1cccc(O)c1`, the inhibition is reported as over 25%. `O=C(O)[C@@H]1C=CCN1` showed an inhibition of over 25%. For `N[C@@H](CO)C(=O)Nc1ccc2ccccc2c1`, the inhibition was over 25%. With `O=C(O)[C@@H]1C[C@@H](Cc2ccco2)CN1` the inhibition was over 25%. For `N[C@@H](CCC(=O)Nc1ccc2ccccc2c1)C(=O)O`, the inhibition was over 25%. `O=C(Nc1ccc2ccccc2c1)[C@@H]1CCCN1` gave an inhibition of over 25%. In the case of `NC(C(=O)O)c1ccccc1O` (stereo unspecified), the inhibition is reported as over 25%. Molecule `CNC(C(=O)O)c1ccc(OC)cc1` (stereo unspecified) has an inhibition of over 25%. With `N[C@H]1CCOC1=O` the inhibition was over 25%. In the case of `Cc1ccc(C[C@H]2CNC(C(=O)O)C2)cc1` (single isomer, unassigned), the inhibition is reported as over 25%. With `CC(C)(C)c1ccc(C[C@H]2CNC(C(=O)O)C2)cc1` (single isomer, unassigned) the inhibition was over 25%. `N[C@@H](CC1CCCC1)C(=O)O` gave an inhibition of over 25%. Molecule `O=C(O)C1C[C@@H](Cc2ccc(I)cc2)CN1` (single isomer, unassigned) has an inhibition of over 25%. `N#Cc1cccc(C[C@H]2CNC(C(=O)O)C2)c1` (single isomer, unassigned) gave an inhibition of over 25%. In the case of `NC(C(=O)O)c1ccc2c(c1)OCCO2` (stereo unspecified), the inhibition is reported as over 25%. `N[C@@H](CCS)C(=O)O` showed an inhibition of over 25%. `N[C@@H](CCCc1ccccc1)C(=O)O` gave an inhibition of over 25%. In the case of `N[C@@H](CCc1ccccc1)C(=O)O`, the inhibition is reported as over 25%. `NC(C(=O)O)c1ccc(F)c(Cl)c1` (stereo unspecified) gave an inhibition of over 25%. For `N[C@H](C(=O)O)c1cccc2ccccc12`, the inhibition was over 25%. `O=C(O)[C@@H]1C[C@H](Cc2cccc(Cl)c2)CN1` showed an inhibition of over 25%. Molecule `C[C@@H](N)C(=O)O` has an inhibition of over 25%. `Nc1c(O)cccc1C(=O)CC(N)C(=O)O` (stereo unspecified) showed an inhibition of over 25%. Molecule `C#CC[C@H]1CN[C@H](C(=O)O)C1` has an inhibition of over 25%. Work on `NC(CCC(=O)Nc1ccccc1)C(=O)O` (stereo unspecified) yielded an inhibition of over 25%. Molecule `COC(=O)CC[C@H](N)C(=O)O` has an inhibition of over 25%. `O=C(O)[C@H]1NCC[C@@H]1c1ccccc1` showed an inhibition of over 25%. `C[C@@H](O)[C@H](N)C(=O)O` showed an inhibition of over 25%. `C=CC[C@H]1CNC(C(=O)O)C1` (single isomer, unassigned) gave an inhibition of over 25%. `N[C@@H](Cc1ccc2ccccc2c1)C(=O)O` gave an inhibition of over 25%. For `O=C(O)C1C[C@@H](Cc2ccc(Cl)cc2)CN1` (single isomer, unassigned), the inhibition was over 25%. Molecule `O=C(O)C1Cc2c([nH]c3ccccc23)CN1` (stereo unspecified) has an inhibition of over 25%. Work on `N[C@H](C(=O)O)C1CCCCC1` yielded an inhibition of over 25%. `C[C@H]1CCN[C@@H]1C(=O)O` gave an inhibition of over 25%. `O=C(O)C1C[C@@H](Cc2ccccc2Cl)CN1` (single isomer, unassigned) gave an inhibition of over 25%. `N[C@@H](CCO)C(=O)O` gave an inhibition of over 25%. Work on `N[C@@H](Cc1csc2ccccc12)C(=O)O` yielded an inhibition of over 25%. Molecule `O=C(O)[C@@H]1C[C@@H](Cc2ccccn2)CN1` has an inhibition of over 25%. `O=C(O)C1C[C@@H](Cc2ccc([N+](=O)[O-])cc2)CN1` (single isomer, unassigned) gave an inhibition of over 25%. Molecule `O=C(O)[C@@H]1C[C@@H](Cc2ccc(C(F)(F)F)cc2)CN1` has an inhibition of over 25%. Work on `NC(C(=O)O)c1ccc(F)c(F)c1` (stereo unspecified) yielded an inhibition of over 25%. Molecule `NC(=O)C[C@@H](N)C(=O)O` has an inhibition of over 25%. With `N#Cc1ccc(C[C@H]2CNC(C(=O)O)C2)cc1` (single isomer, unassigned) the inhibition was over 25%. `O=C(O)[C@@H]1NCC[C@H]1Cc1ccc(F)cc1` showed an inhibition of over 25%. `Cc1ccc(C(N)C(=O)O)cc1Cl` (stereo unspecified) was tested, and the inhibition was over 25%. With `N[C@@H](Cc1c[nH]c2ccc(O)cc12)C(=O)O` the inhibition was over 25%. In the case of `NC(C(=O)O)c1cccc([N+](=O)[O-])c1` (stereo unspecified), the inhibition is reported as over 25%. For `CCOC(=O)CC[C@H](N)C(=O)O`, the inhibition was over 25%. With `O=C(O)C1C[C@@H](Cc2cccc3ccccc23)CN1` (single isomer, unassigned) the inhibition was over 25%. For `NC(CC(=O)c1ccccc1)C(=O)O` (stereo unspecified), the inhibition was over 25%. With `O=C(O)[C@@H]1C[C@@H](Cc2ccccc2C(F)(F)F)CN1` the inhibition was over 25%. Molecule `O=C(O)C1C[C@@H](Cc2ccncc2)CN1` (single isomer, unassigned) has an inhibition of over 25%. With `Cc1ccc(SC[C@H](N)C(=O)O)cc1` the inhibition was over 25%. `NC(C(=O)O)c1cccc(F)c1` (stereo unspecified) showed an inhibition of over 25%. `N[C@@H](C(=O)O)C1=CCC=CC1` showed an inhibition of over 25%. Molecule `O=C(O)C1NCc2ccccc21` (stereo unspecified) has an inhibition of over 25%. `C[C@H](O)[C@H](N)C(=O)O` was tested, and the inhibition was over 25%. `CNC[C@H](N)C(=O)O` showed an inhibition of over 25%. `O=C(O)C1C[C@@H](Cc2ccc(Cl)cc2Cl)CN1` (single isomer, unassigned) showed an inhibition of over 25%. Molecule `C[C@H](O)[C@@H](N)C(=O)O` has an inhibition of over 25%. `N[C@@H](Cc1c[nH]c2ccc(F)cc12)C(=O)O` gave an inhibition of over 25%. `N[C@@H](Cc1ccc(O)c(O)c1)C(=O)O` gave an inhibition of over 25%. In the case of `Cc1ccccc1C[C@H]1CNC(C(=O)O)C1` (single isomer, unassigned), the inhibition is reported as over 25%. With `CC(=O)OC[C@H](N)C(=O)O` the inhibition was over 25%. With `O=C(O)C1C[C@@H](Cc2ccsc2)CN1` (single isomer, unassigned) the inhibition was over 25%. With `O=C(O)[C@@H]1Cc2ccccc2CN1` the inhibition was over 25%. Work on `COCC(N)C(=O)O` (racemic) yielded an inhibition of over 25%. `CC[C@H](N)C(=O)O` gave an inhibition of over 25%. Molecule `NC(CC(=O)Nc1ccccc1)C(=O)O` (stereo unspecified) has an inhibition of over 25%. `N[C@H](C(=O)O)c1ccsc1` was tested, and the inhibition was over 25%. Molecule `CCSC[C@H](N)C(=O)O` has an inhibition of over 25%. `C=CCC(N)C(=O)O` (stereo unspecified) was tested, and the inhibition was over 25%. `O=C(O)[C@@H]1NCC[C@H]1Cc1ccccc1` showed an inhibition of over 25%. `NC1(C(=O)O)CC1` was tested, and the inhibition was over 25%. In the case of `NC(C(=O)O)C1C2CC3CC(C2)CC1C3` (stereo unspecified), the inhibition is reported as over 25%. For `O=C(O)C1C[C@@H](Cc2cccc(C(F)(F)F)c2)CN1` (single isomer, unassigned), the inhibition was over 25%. Molecule `O=C(O)[C@@H]1C[C@@H](F)CN1` has an inhibition of over 25%. `N[C@H](C(=O)O)c1ccc(O)c(C(=O)O)c1` was tested, and the inhibition was over 25%. For `N[C@@H](CCC(=O)NO)C(=O)O`, the inhibition was over 25%. Work on `N[C@H](CCO)C(=O)O` yielded an inhibition of over 25%. `O=C(O)[C@H]1NCCC1c1ccccc1` (stereo partly specified) showed an inhibition of over 25%. Molecule `CSC[C@H](N)C(=O)O` has an inhibition of over 25%. Molecule `NC(C(=O)O)c1nnn[nH]1` (stereo unspecified) has an inhibition of over 25%. `NC(C(=O)O)C12CC3CC(CC(C3)C1)C2` (stereo unspecified) showed an inhibition of over 25%. In the case of `O=C(O)c1cc2sccc2[nH]1`, the inhibition is reported as over 25%. Molecule `Nc1ccccc1C(=O)C[C@@H](N)C(=O)O` has an inhibition of over 25%. In the case of `N#Cc1ccccc1C[C@H]1CNC(C(=O)O)C1` (single isomer, unassigned), the inhibition is reported as over 25%. For `N[C@@H](CS)C(=O)O`, the inhibition was over 25%. `CCOC(=O)CC(N)C(=O)O` (stereo unspecified) gave an inhibition of over 25%. Work on `NCC(=O)O` yielded an inhibition of over 25%. Work on `O=C(O)[C@@H]1C[C@@H](C2CCCCC2)CN1` yielded an inhibition of over 25%. `O=C(O)[C@H]1C[C@@H](F)CN1` was tested, and the inhibition was over 25%. For `COc1ccc(C(N)C(=O)O)cc1` (stereo unspecified), the inhibition was over 25%. For `CC(O)[C@H](C)[C@H](N)C(=O)O` (stereo partly specified), the inhibition was over 25%. Molecule `N[C@@H](CC(=O)OCc1ccccc1)C(=O)O` has an inhibition of over 25%. `O=C(O)[C@@H]1C[C@@H](c2ccccc2)CN1` gave an inhibition of over 25%. Work on `O=C(O)[C@@H]1C[C@H](Oc2cccc(Cl)c2)CN1` yielded an inhibition of over 25%. `O=C(O)C1C[C@@H](Cc2cccc(F)c2)CN1` (single isomer, unassigned) gave an inhibition of over 25%.

— ChEMBL document CHEMBL3991947, “D-serine transporter inhibitors as pharmaceutical compositions for the treatment of central nervous system disorders” (2014)
